Measurements: patent publication US12595269B2, “Morpholine-like monoamine releasers” (Solvonis Therapeutics Ireland Holdings Limited, priority 2022, dated 2026)
Read-outs that look alike come from different tables or passages of the source.

What was measured:
[1] = Lipophilicity by Chromatographic Hydrophobicity Index (CHI LogD); format: physicochemical
Experimental: Methods and Procedure: The methods employed herein comply with previously described procedures to assure data integrity and adherence to GLP regulations. Briefly, a CHI value was determined by comparing the retention time of a test compound to a linear curve based on a set of calibration compounds with known CHI values. The resultant CHI value can be further converted to a CHI Log D value using an established linear regression equation.
Reference compounds with known CHI values, including theophylline, phenyltetrazole, benzymidazole, colchicine, phenyltheophylline, acetophenone, indole, propiophenone, butyrophenone, valerophenone, were used to create a calibration line. Test compounds (10 mM) were prepared in DMSO on the same day of the experiment, when feasible. For sample preparation, 10 μL of test solution was diluted with 190 μL of a solution of Ammonium Acetate solution (50 mM) and Acetonitrile (1:1) pH7.4, which was then mixed via shaking at room temperature for 10 minutes. Test solutions were compared with the reference compounds via HPLC-UV, as described in Example 19. The gradient was calibrated by determining the retention time of each reference compound on a reverse phase LC system at a pH of 7.4.
The relationship of CHI with retention time is “CHI=Atr+B,” wherein A and B are the constants of a linear plot of CHI against their gradient retention times, and tr is retention time.
The test compounds were analyzed on the same system as the test mix. The equation generated from the calibration line for the reference compounds was then used to determine the unknown CHI value for the test compound. From the CHI value, the Log D was extrapolated according to the following equation, as described in Valko et al, 2001: Log D=0.0525×CHI pH7.4-1.467. Log D represents the log of the partitioning of a chemical compound between the lipid and aqueous phases.

[2] = target: T1, SERT (serotonin release) (Rattus norvegicus, UniProt P31652); assay: Serotonin release filtration assay in rat cortex synaptosomes; format: cell-based
T1 construct: from tissue; host or cells: rat frontal cortex, crude synaptosomes
T1 sequence (P31652 whole entry): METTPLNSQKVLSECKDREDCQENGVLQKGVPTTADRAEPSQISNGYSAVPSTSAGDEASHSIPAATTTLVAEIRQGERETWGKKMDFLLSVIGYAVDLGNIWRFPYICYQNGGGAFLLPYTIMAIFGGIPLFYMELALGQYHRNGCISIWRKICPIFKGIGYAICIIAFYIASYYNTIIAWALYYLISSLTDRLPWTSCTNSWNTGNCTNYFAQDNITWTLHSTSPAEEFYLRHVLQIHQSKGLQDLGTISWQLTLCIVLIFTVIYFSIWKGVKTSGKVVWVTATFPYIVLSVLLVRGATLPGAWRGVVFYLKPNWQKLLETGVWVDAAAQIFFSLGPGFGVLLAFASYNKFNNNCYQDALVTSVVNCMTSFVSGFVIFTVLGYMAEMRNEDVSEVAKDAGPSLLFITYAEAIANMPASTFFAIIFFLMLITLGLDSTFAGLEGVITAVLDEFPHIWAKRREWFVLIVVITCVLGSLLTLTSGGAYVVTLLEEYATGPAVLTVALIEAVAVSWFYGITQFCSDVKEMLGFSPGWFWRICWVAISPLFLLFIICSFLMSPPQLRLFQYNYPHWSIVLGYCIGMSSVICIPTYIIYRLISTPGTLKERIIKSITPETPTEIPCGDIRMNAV
Experimental: Methods and Procedure—Release: The potency of the disclosed compounds for stimulating dopamine (DA) release was measured by an endpoint release filtration assay in a 96-well format using rat synaptosomes, essentially as described by Sandtner et al., Mol. Pharmacol., 2016; 89(1):165-75, and Baumann et al., Neuropsychopharmacol., 2013; 38:552-562, with some variations.
One male rat was sacrificed and striatum/cortex regions were dissected over ice. The striatum portions were weighed and put in a glass tube for homogenization, containing ice-cold 0.32 M sucrose (dilution 1:24 w/v), while the frontal cortex tissue was diluted in ice-cold 0.32 M sucrose, 1:20 w/v. Tissues were homogenized and centrifuged for 10 mins at 1000×g. The two supernatants from striatum and cortex (crude synaptosomes) were retained on ice until use.
Test compounds were then serially diluted 1:4 in neat DMSO as concentration-response curves (CRC) of 11 points. To each well of a 2-mL 96 deep-well plate (Whatman UNIPLATE 96 well) were added: 2 μL of CRC of test compounds or 2 μL of DMSO (no-release condition) or 2 μL of MDMA 10 mM solution (final 50 μM, for maximal release), followed by 200 μL/well of complete Krebs-phosphate buffer (126 mM NaCl, 2.4 mM KCl, 0.83 mM CaCl2, 0.8 mM MgCl2, 0.5 mM KH2PO4, 0.5 mM Na2SO4, 11.1 mM Glucose, 0.05 mM pargyline, 1 mg/mL ascorbic acid, freshly added, pH 7.4), containing 1 μM reserpine to block vesicular uptake of substrate. Desipramine (100 nM) and citalopram (100 nM) were also added to the release assay buffer in order to inhibit NET and SERT uptake, respectively. The final compound dilution, then, was 1:200 in 0.5% DMSO.
The raw data (cpm) from residual radioactivity onto the filter were elaborated for the determination of pEC50/EC50 values. Specifically, the compound effect was expressed as the percent of maximal release obtained with 50 μM MDMA (100% release) in comparison to vehicle (0.5% DMSO, 0% release). Both MDMA and D-amphetamine in CRC were used as internal controls in each release experiment. In each plate, for both 0% and 100% of release, the signal window is monitored performing Z′ calculations using raw data of four replicates.
Synaptosomes were then loaded with ^3H-5HT for 60 minutes at RT. After dispensing loaded synaptosomes onto a compound plate (200 μL/well), the release reaction proceeded for an additional 15 minutes. Stop by filtration, counting, and data elaboration were performed as described for DA release.

[3] = target: T2, SERT (serotonin transporter) (Homo sapiens, UniProt P31645); assay: SERT uptake scintillation proximity assay, inhibition of [3H]-serotonin uptake in hSERT-CHO cells; format: cell-based; settings: read-out: SERT uptake pIC50 (converted)
T2 construct: expressed in transfected cells; host or cells: CHO
T2 sequence (P31645 whole entry): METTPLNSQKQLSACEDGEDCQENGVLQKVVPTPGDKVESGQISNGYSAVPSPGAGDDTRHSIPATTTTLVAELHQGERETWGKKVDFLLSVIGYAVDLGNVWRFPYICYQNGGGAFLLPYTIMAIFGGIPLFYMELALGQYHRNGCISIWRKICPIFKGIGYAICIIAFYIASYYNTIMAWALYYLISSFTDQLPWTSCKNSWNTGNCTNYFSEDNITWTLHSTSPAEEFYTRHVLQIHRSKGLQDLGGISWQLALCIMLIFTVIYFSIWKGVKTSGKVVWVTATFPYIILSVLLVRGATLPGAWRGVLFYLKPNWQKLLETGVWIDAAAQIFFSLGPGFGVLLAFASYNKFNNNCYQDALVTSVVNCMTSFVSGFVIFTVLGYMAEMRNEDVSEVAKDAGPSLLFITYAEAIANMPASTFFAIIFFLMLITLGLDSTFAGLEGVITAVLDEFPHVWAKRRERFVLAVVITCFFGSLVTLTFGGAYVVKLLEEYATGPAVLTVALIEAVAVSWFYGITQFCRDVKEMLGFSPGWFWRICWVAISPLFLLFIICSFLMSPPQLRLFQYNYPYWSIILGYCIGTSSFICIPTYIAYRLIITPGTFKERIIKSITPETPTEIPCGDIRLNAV
Experimental: Overview: Eighty-eight compounds were tested in SERT (serotonin transporter) and DAT (dopamine transporter) uptake assays (completed as scintillation proximity assays, or SPAs, in a recombinant CHO cell line). Fifty-two compounds were tested in release assays for 5-HT and DA release in rat synaptosomes.
In addition, hSERT-CHO cells were detached using Versene and added at a density of 150,000 cells/mL to the SPA Mixture, which contains the following components in the Assay Buffer described above: 0.5 mg/mL SPA Imaging beads (RPNQ0001, PerkinElmer), 10 μM pargyline and 35 nM of [^3H]-serotonin (NET498, PerkinElmer). The SPA Mixture was added 20 μL/well to 384 well plates containing 0.1 μL/well of test compound in neat DMSO (11 points of 1:5 serial dilution, 0.5% DMSO final), 0.1 μL of DMSO (total uptake), or 0.1 μL of the standard inhibitor indatraline (1 μM, nonspecific uptake). Plates were sealed with a Top-seal A and read using a Microbeta counter (PerkinElmer) after 120 minutes of incubation at room temperature.
For both tests, the raw experimental data (cpm) were elaborated for the determination of pIC50/IC50 values as % inhibition of specific uptake. Concentration-response curves of MDMA, MDDMA, citalopram and GBR-12909 were used as internal standards in all experiments, and the signal window was monitored in each plate performing Z′ calculations, as described in Zhang et al., J. Biomol. Screen., 1999; 4: 67-73.

[4] = pH 7.4, as stated in text under Table 10, read-out: calculated Log D values
[5] = pH 7.4, pH 7.4, HPLC-UV, read-out: Chi LogD
[6] = rat cortex synaptosomes, % of release by 50 μM MDMA, read-out: SERT release pEC50 (converted)

Clc1ccc([C@]23CN[C@H](CO2)C3)cc1Cl (single isomer, unassigned) [516A]
chromatographic logD [1, 4]: 1.15
chromatographic logD [1, 5]: 0.75
EC50 [2, 6]: 18.2 nM
IC50 [3]: 46.8 nM

CNC(C)Cc1ccc2c(c1)OCO2 (stereo not drawn) [MDMA, reference compound]
chromatographic logD [1, 4]: 0.29
chromatographic logD [1, 5]: 0.29

Clc1ccc(C23CNC(CO2)C3)cc1Cl (stereo not drawn) [522A, 1-(3,4-dichlorophenyl)-2-oxa-5-azabicyclo[2.2.1]heptane]
chromatographic logD [1, 4]: 1.15
chromatographic logD [1, 5]: 0.75
EC50 [2, 6]: 19.1 nM
EC50 ([2]; serotonin release, read-out: EC50 to influence SER release): 22 nM
IC50 [3]: 56.2 nM

Clc1ccc([C@@]23CN[C@@H](CO2)C3)cc1Cl (single isomer, unassigned) [518A]
chromatographic logD [1, 4]: 1.15
chromatographic logD [1, 5]: 0.75
EC50 [2, 6]: 17 nM
IC50 [3]: 81.3 nM
